Assay results as given in patent US20240043427A1 (Gilead Sciences, Inc., priority 2020, published 2024).

Tests used:
[1] = target: T1, CD73 (Homo sapiens (Human), UniProt P21589); experiment: MDA-MB-231 Cell Based CD73 Activity Assay (DMEM); settings: MDA-MB-231-GFP cells, DMEM medium with 10% human plasma, 200 uM AMP
[2] = target: T1, CD73; type: biochemical; settings: 1 mM NaH2PO4 in enzyme buffer, CD73 0.3 nM, AMP 15 uM

T1 sequence (P21589 27-574): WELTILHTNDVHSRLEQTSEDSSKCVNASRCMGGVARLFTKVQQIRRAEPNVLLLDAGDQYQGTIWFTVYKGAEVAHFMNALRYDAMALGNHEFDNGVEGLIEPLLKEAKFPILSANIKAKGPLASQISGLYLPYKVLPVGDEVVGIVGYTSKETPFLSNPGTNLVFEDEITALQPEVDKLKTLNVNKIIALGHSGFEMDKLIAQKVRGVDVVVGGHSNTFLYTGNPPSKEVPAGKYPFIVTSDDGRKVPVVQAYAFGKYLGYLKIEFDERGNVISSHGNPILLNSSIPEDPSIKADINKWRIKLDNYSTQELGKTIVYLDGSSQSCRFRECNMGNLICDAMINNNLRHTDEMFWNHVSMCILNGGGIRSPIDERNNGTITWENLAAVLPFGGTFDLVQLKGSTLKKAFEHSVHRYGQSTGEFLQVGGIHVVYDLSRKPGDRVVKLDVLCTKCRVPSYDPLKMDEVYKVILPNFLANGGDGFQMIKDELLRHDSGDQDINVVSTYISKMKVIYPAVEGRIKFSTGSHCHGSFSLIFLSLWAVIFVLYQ

EC50 [1] [nM]	IC50 [2] [nM]	SMILES
13	16.9	CC(C)(C)OC(=O)N1CC2(C1)CN(c1cc(-c3c[nH]c(=O)[nH]c3=O)nn3ccnc13)CC2(F)F [Example 488, tert-butyl 6-(6-(2,4-dioxo-1,2,3,4-tetrahydropyrimidin-5-yl)imidazo[1,2-b]pyridazin-8-yl)-8,8-difluoro-2,6-diazaspiro[3.4]octane-2-carboxylate]
1680	> 250	O=c1[nH]cc(-c2cc(NCCc3cccc(C(F)(F)F)c3)c3nccn3n2)c(=O)[nH]1 [Example 489, 5-(8-((3-(trifluoromethyl)phenethyl)amino)imidazo[1,2-b]pyridazin-6-yl)pyrimidine-2,4(1H,3H)-dione]
463	95	O=c1[nH]cc(-c2cc(NCCc3cccc(Cl)c3)c3nccn3n2)c(=O)[nH]1 [Example 490, 5-(8-((3-chlorophenethyl)amino)imidazo[1,2-b]pyridazin-6-yl)pyrimidine-2,4(1H,3H)-dione]
1680	> 250	O=c1[nH]cc(-c2cc(NCCc3ccccc3Cl)c3nccn3n2)c(=O)[nH]1 [Example 491, 5-(8-((2-chlorophenethyl)amino)imidazo[1,2-b]pyridazin-6-yl)pyrimidine-2,4(1H,3H)-dione]
58.4	25.6	O=c1[nH]cc(-c2cc(NCCc3cccc(F)c3)c3nccn3n2)c(=O)[nH]1 [Example 492, 5-(8-((3-fluorophenethyl)amino)imidazo[1,2-b]pyridazin-6-yl)pyrimidine-2,4(1H,3H)-dione]
837	194	O=c1[nH]cc(-c2cc(NCCc3ccccc3F)c3nccn3n2)c(=O)[nH]1 [Example 493, 5-(8-((2-fluorophenethyl)amino)imidazo[1,2-b]pyridazin-6-yl)pyrimidine-2,4(1H,3H)-dione]
291	102	O=c1[nH]cc(-c2cc(NC[C@@H](F)c3ccccc3)c3nccn3n2)c(=O)[nH]1 [Example 494, (S)-5-(8-((2-fluoro-2-phenylethyl)amino)imidazo[1,2-b]pyridazin-6-yl)pyrimidine-2,4(1H,3H)-dione]
748	> 250	O=c1[nH]cc(-c2cc(NCCc3c[nH]c4ccc(Cl)cc34)c3nccn3n2)c(=O)[nH]1 [Example 495, 5-(8-((2-(5-chloro-1H-indol-3-yl)ethyl)amino)imidazo[1,2-b]pyridazin-6-yl)pyrimidine-2,4(1H,3H)-dione]
154	64	O=c1[nH]cc(-c2cc(NCCc3ccc(F)cc3)c3nccn3n2)c(=O)[nH]1 [Example 496, 5-(8-((4-fluorophenethyl)amino)imidazo[1,2-b]pyridazin-6-yl)pyrimidine-2,4(1H,3H)-dione]
569	64.5	O=c1[nH]cc(-c2cc(NCCc3ccc(Cl)cc3)c3nccn3n2)c(=O)[nH]1 [Example 497, 5-(8-((4-chlorophenethyl)amino)imidazo[1,2-b]pyridazin-6-yl)pyrimidine-2,4(1H,3H)-dione]
260	50.7	O=c1[nH]cc(-c2cc(NCC(F)(F)c3ccccc3)c3nccn3n2)c(=O)[nH]1 [Example 498, 5-(8-((2,2-difluoro-2-phenylethyl)amino)imidazo[1,2-b]pyridazin-6-yl)pyrimidine-2,4(1H,3H)-dione]
501	163	C[C@H](CNc1cc(-c2c[nH]c(=O)[nH]c2=O)nn2ccnc12)c1ccccc1 [Example 499, (S)-5-(8-((2-phenylpropyl)amino)imidazo[1,2-b]pyridazin-6-yl)pyrimidine-2,4(1H,3H)-dione]
457	108	C[C@@H](CNc1cc(-c2c[nH]c(=O)[nH]c2=O)nn2ccnc12)c1ccccc1 [Example 500, (R)-5-(8-((2-phenylpropyl)amino)imidazo[1,2-b]pyridazin-6-yl)pyrimidine-2,4(1H,3H)-dione]
108	20.9	O=c1[nH]cc(-c2cc(N3CC(F)(F)C4(CNC4)C3)c3nccn3n2)c(=O)[nH]1 [Example 501, 5-(8-(8,8-difluoro-2,6-diazaspiro[3.4]octan-6-yl)imidazo[1,2-b]pyridazin-6-yl)pyrimidine-2,4(1H,3H)-dione]
44.4	9.06	O=c1[nH]cc(-c2cc(N3CC(F)(F)C4(CN(Cc5cccc(F)c5)C4)C3)c3nccn3n2)c(=O)[nH]1 [Example 502, 5-(8-(8,8-difluoro-2-(3-fluorobenzyl)-2,6-diazaspiro[3.4]octan-6-yl)imidazo[1,2-b]pyridazin-6-yl)pyrimidine-2,4(1H,3H)-dione]
5.47	5.22	CC(=O)N1CC2(C1)CN(c1cc(-c3c[nH]c(=O)[nH]c3=O)nn3ccnc13)CC2(F)F [Example 503, 5-(8-(2-acetyl-8,8-difluoro-2,6-diazaspiro[3.4]octan-6-yl)imidazo[1,2-b]pyridazin-6-yl)pyrimidine-2,4(1H,3H)-dione]
5.62	6.78	COC(=O)N1CC2(C1)CN(c1cc(-c3c[nH]c(=O)[nH]c3=O)nn3ccnc13)CC2(F)F [Example 504, Methyl 6-(6-(2,4-dioxo-1,2,3,4-tetrahydropyrimidin-5-yl)imidazo[1,2-b]pyridazin-8-yl)-8,8-difluoro-2,6-diazaspiro[3.4]octane-2-carboxylate]
10.1	5.61	O=C(OCc1ccccc1)N1CC2(C1)CN(c1cc(-c3c[nH]c(=O)[nH]c3=O)nn3ccnc13)CC2(F)F [Example 505, benzyl 6-(6-(2,4-dioxo-1,2,3,4-tetrahydropyrimidin-5-yl)imidazo[1,2-b]pyridazin-8-yl)-8,8-difluoro-2,6-diazaspiro[3.4]octane-2-carboxylate]
8.67	8.82	O=C(OCC(F)(F)F)N1CC2(C1)CN(c1cc(-c3c[nH]c(=O)[nH]c3=O)nn3ccnc13)CC2(F)F [Example 506, 2,2,2-trifluoroethyl 6-(6-(2,4-dioxo-1,2,3,4-tetrahydropyrimidin-5-yl)imidazo[1,2-b]pyridazin-8-yl)-8,8-difluoro-2,6-diazaspiro[3.4]octane-2-carboxylate]
19.7	9.83	O=c1[nH]cc(-c2cc(N3CC(F)(F)C4(CN(CC(F)F)C4)C3)c3nccn3n2)c(=O)[nH]1 [Example 507, 5-(8-(2-(2,2-difluoroethyl)-8,8-difluoro-2,6-diazaspiro[3.4]octan-6-yl)imidazo[1,2-b]pyridazin-6-yl)pyrimidine-2,4(1H,3H)-dione]
29	15	O=c1[nH]cc(-c2cc(N3CC(F)(F)C4(CN(CC(F)(F)F)C4)C3)c3nccn3n2)c(=O)[nH]1 [Example 508, 5-(8-(8,8-difluoro-2-(2,2,2-trifluoroethyl)-2,6-diazaspiro[3.4]octan-6-yl)imidazo[1,2-b]pyridazin-6-yl)pyrimidine-2,4(1H,3H)-dione]
90.1	49.5	O=c1[nH]cc(-c2cc(-c3cnn(C(F)F)c3)c3nccn3n2)c(=O)[nH]1 [Example 509, 5-(8-(1-(difluoromethyl)-1H-pyrazol-4-yl)imidazo[1,2-b]pyridazin-6-yl)pyrimidine-2,4(1H,3H)-dione]
382	246	COCCn1cc(-c2cc(-c3c[nH]c(=O)[nH]c3=O)nn3ccnc23)cn1 [Example 510, 5-(8-(1-(2-methoxyethyl)-1H-pyrazol-4-yl)imidazo[1,2-b]pyridazin-6-yl)pyrimidine-2,4(1H,3H)-dione]
431	> 250	O=c1[nH]cc(-c2cc(-c3cnn(CCN4CCOCC4)c3)c3nccn3n2)c(=O)[nH]1 [Example 511, 5-(8-(1-(2-morpholinoethyl)-1H-pyrazol-4-yl)imidazo[1,2-b]pyridazin-6-yl)pyrimidine-2,4(1H,3H)-dione]
1140	> 250	Cn1ccc(-c2cc(-c3c[nH]c(=O)[nH]c3=O)nn3ccnc23)n1 [Example 512, 5-(8-(1-methyl-1H-pyrazol-3-yl)imidazo[1,2-b]pyridazin-6-yl)pyrimidine-2,4(1H,3H)-dione]
934	> 250	CC1(C)CC(=O)N(c2cc(-c3c[nH]c(=O)[nH]c3=O)nn3ccnc23)C1 [Example 513, 5-(8-(4,4-dimethyl-2-oxopyrrolidin-1-yl)imidazo[1,2-b]pyridazin-6-yl)pyrimidine-2,4(1H,3H)-dione]
269	212	CC1(C)CN(c2cc(-c3c[nH]c(=O)[nH]c3=O)nn3ccnc23)C(=O)O1 [Example 514, 5-(8-(5,5-dimethyl-2-oxooxazolidin-3-yl)imidazo[1,2-b]pyridazin-6-yl)pyrimidine-2,4(1H,3H)-dione]
12.8	3.17	C[C@H]1CN(c2cc(-c3c[nH]c(=O)[nH]c3=O)nn3ccnc23)CC1(F)F [Example 516, (S)-5-(8-(3,3-difluoro-4-methylpyrrolidin-1-yl)imidazo[1,2-b]pyridazin-6-yl)pyrimidine-2,4(1H,3H)-dione]
21.4	5.23	C[C@@H]1CN(c2cc(-c3c[nH]c(=O)[nH]c3=O)nn3ccnc23)CC1(F)F [Example 517, (R)-5-(8-(3,3-difluoro-4-methylpyrrolidin-1-yl)imidazo[1,2-b]pyridazin-6-yl)pyrimidine-2,4(1H,3H)-dione]
19.6	5.5	C[C@H]1CN(c2cc(-c3c[nH]c(=O)[nH]c3=O)nn3c(F)cnc23)CC1(F)F [Example 518, (S)-5-(8-(3,3-difluoro-4-methylpyrrolidin-1-yl)-3-fluoroimidazo[1,2-b]pyridazin-6-yl)pyrimidine-2,4(1H,3H)-dione]

SMILES	EC50 [1] [nM]	IC50 [2] [nM]
CC1(C)CN(c2cc(-c3c[nH]c(=O)[nH]c3=O)nn3c(Cl)c(Cl)nc23)CC1(F)F [Example 515, 5-(2,3-dichloro-8-(3,3-difluoro-4,4-dimethylpyrrolidin1-yl)imidazo[1,2-b]pyridazin-6-yl)pyrimidine-2,4(1H,3H)-dione]	228	1.72
